Measurements as given in ChEMBL document CHEMBL5608186, “Design, synthesis and structure-activity relationships of novel non-ketolides: 9-Oxime clarithromycin featured with seven-to thirteen-atom-length diamine linkers at 3-OH” (Eur J Med Chem, 2024).
In brackets after ≈: the same amount, converted by molar mass.

Experiments:
Type in all cases: functional
Streptococcus pneumoniae [1] = experiment: Antibacterial activity against Streptococcus pneumoniae 07P390 harboring c-erm gene incubated for 16 to 20 hrs by CLSI based broth microdilution method; conditions: time 16-20 hrs
Haemophilus influenzae [2] = experiment: Selectivity ratio of MBC for Haemophilus influenzae ATCC 49247 to MIC for Haemophilus influenzae ATCC 49247
Staphylococcus aureus [3] = experiment: Antibacterial activity against methicillin-resistant Staphylococcus aureus PU 20 harboring c-ermA gene incubated for 16 to 20 hrs by CLSI based broth microdilution method; conditions: time 16-20 hrs
Streptococcus pyogenes [4] = experiment: Selectivity ratio of MBC for Streptococcus pyogenes 01-968 harboring i-ermB gene to MIC for Streptococcus pyogenes 01-968 harboring i-ermB gene
Streptococcus pneumoniae [5] = experiment: Selectivity ratio of MBC for Streptococcus pneumoniae ATCC 49619 to MIC for Streptococcus pneumoniae ATCC 49619
Streptococcus pneumoniae [6] = experiment: Selectivity ratio of MBC for Streptococcus pneumoniae PU 09 harboring mef gene to MIC for Streptococcus pneumoniae PU 09 harboring mef gene
Haemophilus influenzae [7] = experiment: Antibacterial activity against Haemophilus influenzae ATCC 49247 incubated for 16 to 20 hrs by CLSI based broth microdilution method; conditions: time 16-20 hrs
Staphylococcus aureus [8] = experiment: Antibacterial activity against methicillin-resistant Staphylococcus aureus PU 32 harboring i-ermA gene incubated for 16 to 20 hrs by CLSI based broth microdilution method; conditions: time 16-20 hrs
Streptococcus pneumoniae [9] = experiment: Bactericidal activity against Streptococcus pneumoniae PU 09 harboring mef gene incubated for 16 to 20 hrs by CLSI based broth microdilution method; conditions: time 16-20 hrs
Streptococcus pneumoniae [10] = experiment: Bactericidal activity against Streptococcus pneumoniae ATCC 49619 incubated for 16 to 20 hrs by CLSI based broth microdilution method; conditions: time 16-20 hrs
Streptococcus pneumoniae [11] = experiment: Antibacterial activity against Streptococcus pneumoniae ATCC 49619 incubated for 16 to 20 hrs by CLSI based broth microdilution method; conditions: time 16-20 hrs
Staphylococcus aureus [12] = experiment: Bactericidal activity against methicillin-resistant Staphylococcus aureus PU 32 harboring i-ermA gene incubated for 16 to 20 hrs by CLSI based broth microdilution method; conditions: time 16-20 hrs
Streptococcus pyogenes [13] = experiment: Antibacterial activity against Streptococcus pyogenes 01-968 harboring i-ermB gene incubated for 16 to 20 hrs by CLSI based broth microdilution method; conditions: time 16-20 hrs
Streptococcus pneumoniae [14] = experiment: Antibacterial activity against Streptococcus pneumoniae PU 09 harboring mef gene incubated for 16 to 20 hrs by CLSI based broth microdilution method; conditions: time 16-20 hrs
Streptococcus pneumoniae [15] = experiment: Bactericidal activity against Streptococcus pneumoniae 07P390 harboring c-erm gene incubated for 16 to 20 hrs by CLSI based broth microdilution method; conditions: time 16-20 hrs
Staphylococcus aureus [16] = experiment: Bactericidal activity against methicillin-resistant Staphylococcus aureus PU 20 harboring c-ermA gene incubated for 16 to 20 hrs by CLSI based broth microdilution method; conditions: time 16-20 hrs
Haemophilus influenzae [17] = experiment: Bactericidal activity against Haemophilus influenzae ATCC 49247 incubated for 16 to 20 hrs by CLSI based broth microdilution method; conditions: time 16-20 hrs
Streptococcus pyogenes [18] = experiment: Bactericidal activity against Streptococcus pyogenes 01-968 harboring i-ermB gene incubated for 16 to 20 hrs by CLSI based broth microdilution method; conditions: time 16-20 hrs
Staphylococcus aureus [19] = experiment: Selectivity ratio of MBC for methicillin-resistant Staphylococcus aureus PU 32 harboring i-ermA gene to MIC for methicillin-resistant Staphylococcus aureus PU 32 harboring i-ermA gene

`CC[C@H]1OC(=O)[C@H](C)[C@@H](OC(=O)CCNCCNc2cc3c(=O)c(C(=O)O)cn(C4CC4)c3cc2Cl)[C@H](C)[C@@H](O[C@@H]2O[C@H](C)C[C@H](N(C)C)[C@H]2O)[C@](C)(OC)C[C@@H](C)/C(=N\OC)[C@H](C)[C@H]2OC(=O)O[C@@]21C` gave an MIC (Streptococcus pneumoniae [1]) of over 32 µg/mL, a Selectivity ratio (Haemophilus influenzae [2]) of 1 and an MIC (Staphylococcus aureus [3]) of over 256 µg/mL. The Selectivity ratio (Streptococcus pyogenes [4]) was 2, the Selectivity ratio (Streptococcus pneumoniae [5]) was 2 and the Selectivity ratio (Streptococcus pneumoniae [6]) was 1.

`CC[C@H]1OC(=O)[C@H](C)[C@@H](OC(=O)CCN2CCN(c3cc4c(cc3F)c(=O)c(C(N)=O)cn4C3CC3)CC2)[C@H](C)[C@@H](O[C@@H]2O[C@H](C)C[C@H](N(C)C)[C@H]2O)[C@](C)(OC)C[C@@H](C)/C(=N\OCC#Cc2cncc(C(=O)NC)c2)[C@H](C)[C@H]2OC(=O)O[C@@]21C` was tested, and the MIC (Haemophilus influenzae [7]) was over 256 µg/mL, the MIC (Staphylococcus aureus [8]) was 256 µg/mL (≈ 216 µM) and the MBC (Streptococcus pneumoniae [9]) was 4 µg/mL (≈ 3.37 µM). For the same compound, the MBC (Streptococcus pneumoniae [10]) was 1 µg/mL (≈ 0.842 µM), the MIC (Streptococcus pneumoniae [1]) was 256 µg/mL (≈ 216 µM) and the MIC (Streptococcus pneumoniae [11]) was 0.25 µg/mL (≈ 0.211 µM). For the same compound, the MBC (Staphylococcus aureus [12]) was over 256 µg/mL, the MIC (Streptococcus pyogenes [13]) was 32 µg/mL (≈ 27 µM) and the MIC (Staphylococcus aureus [3]) was over 256 µg/mL. It also gave an MIC (Streptococcus pneumoniae [14]) of 1 µg/mL (≈ 0.842 µM), an MBC (Streptococcus pneumoniae [15]) of over 256 µg/mL and a Selectivity ratio (Streptococcus pyogenes [4]) of over 8. It also gave an MBC (Staphylococcus aureus [16]) of over 256 µg/mL, an MBC (Haemophilus influenzae [17]) of over 256 µg/mL and an MBC (Streptococcus pyogenes [18]) of over 256 µg/mL. The Selectivity ratio (Streptococcus pneumoniae [5]) was 4 and the Selectivity ratio (Streptococcus pneumoniae [6]) was 4.

With `CC[C@H]1OC(=O)[C@H](C)[C@@H](OC(=O)CCNCCCCCCCCNc2cc3c(=O)c(C(=O)O)cn(C4CC4)c3cc2Cl)[C@H](C)[C@@H](O[C@@H]2O[C@H](C)C[C@H](N(C)C)[C@H]2O)[C@](C)(OC)C[C@@H](C)/C(=N\OC)[C@H](C)[C@H]2OC(=O)O[C@@]21C` the MIC (Haemophilus influenzae [7]) was over 256 µg/mL, the MIC (Staphylococcus aureus [8]) was 128 µg/mL (≈ 116 µM) and the MBC (Streptococcus pneumoniae [9]) was 16 µg/mL (≈ 14.5 µM). The MBC (Streptococcus pneumoniae [10]) was 2 µg/mL (≈ 1.81 µM), the MIC (Streptococcus pneumoniae [1]) was over 32 µg/mL and the MIC (Streptococcus pneumoniae [11]) was 2 µg/mL (≈ 1.81 µM). It also gave an MBC (Staphylococcus aureus [12]) of over 256 µg/mL, an MIC (Streptococcus pyogenes [13]) of 4 µg/mL (≈ 3.62 µM) and an MIC (Staphylococcus aureus [3]) of 128 µg/mL (≈ 116 µM). For the same compound, the MIC (Streptococcus pneumoniae [14]) was 16 µg/mL (≈ 14.5 µM), the Selectivity ratio (Streptococcus pyogenes [4]) was over 8 and the MBC (Staphylococcus aureus [16]) was over 256 µg/mL. The MBC (Streptococcus pyogenes [18]) was over 32 µg/mL, the Selectivity ratio (Streptococcus pneumoniae [5]) was 1 and the Selectivity ratio (Streptococcus pneumoniae [6]) was 1.

For `CC[C@H]1OC(=O)[C@H](C)[C@@H](OC(=O)CCN2CCN(c3cc4c(cc3F)c(=O)c(C(=O)O)cn4C3CC3)CC2)[C@H](C)[C@@H](O[C@@H]2O[C@H](C)C[C@H](N(C)C)[C@H]2O)[C@](C)(OC)C[C@@H](C)/C(=N\OC)[C@H](C)[C@H]2OC(=O)O[C@@]21C`, the MIC (Haemophilus influenzae [7]) was 1 µg/mL (≈ 0.971 µM), the MIC (Staphylococcus aureus [8]) was 64 µg/mL (≈ 62.1 µM) and the MBC (Streptococcus pneumoniae [9]) was 2 µg/mL (≈ 1.94 µM). For the same compound, the MBC (Streptococcus pneumoniae [10]) was 0.25 µg/mL (≈ 0.243 µM), the MIC (Streptococcus pneumoniae [1]) was over 32 µg/mL and the Selectivity ratio (Haemophilus influenzae [2]) was 2. For the same compound, the MIC (Streptococcus pneumoniae [11]) was 0.25 µg/mL (≈ 0.243 µM), the MBC (Staphylococcus aureus [12]) was over 256 µg/mL and the MIC (Streptococcus pyogenes [13]) was 1 µg/mL (≈ 0.971 µM). The Selectivity ratio (Staphylococcus aureus [19]) was over 4, the MIC (Staphylococcus aureus [3]) was 256 µg/mL (≈ 248 µM) and the MIC (Streptococcus pneumoniae [14]) was 0.5 µg/mL (≈ 0.485 µM). It also gave a Selectivity ratio (Streptococcus pyogenes [4]) of 8, an MBC (Staphylococcus aureus [16]) of over 256 µg/mL and an MBC (Haemophilus influenzae [17]) of 2 µg/mL (≈ 1.94 µM). It also gave an MBC (Streptococcus pyogenes [18]) of 8 µg/mL (≈ 7.77 µM), a Selectivity ratio (Streptococcus pneumoniae [5]) of 1 and a Selectivity ratio (Streptococcus pneumoniae [6]) of 4.

`CC[C@H]1OC(=O)[C@H](C)[C@@H](OC(=O)CCNCCCc2ccc3c(c2)c(=O)c(C(=O)O)cn3C2CC2)[C@H](C)[C@@H](O[C@@H]2O[C@H](C)C[C@H](N(C)C)[C@H]2O)[C@](C)(OC)C[C@@H](C)/C(=N\OC)[C@H](C)[C@H]2OC(=O)O[C@@]21C` was tested, and the MIC (Streptococcus pneumoniae [1]) was 16 µg/mL (≈ 16.2 µM), the Selectivity ratio (Haemophilus influenzae [2]) was 2 and the MBC (Streptococcus pneumoniae [15]) was over 32 µg/mL. For the same compound, the Selectivity ratio (Streptococcus pyogenes [4]) was 1, the Selectivity ratio (Streptococcus pneumoniae [5]) was 2 and the Selectivity ratio (Streptococcus pneumoniae [6]) was 1.

For `CC[C@H]1OC(=O)[C@H](C)[C@@H](O[C@H]2C[C@@](C)(OC)[C@@H](O)[C@H](C)O2)[C@H](C)[C@@H](O[C@@H]2O[C@H](C)C[C@H](N(C)C)[C@H]2O)[C@](C)(OC)C[C@@H](C)C(=O)[C@H](C)[C@@H](O)[C@]1(C)O` [CLARITHROMYCIN], the MBC (Streptococcus pneumoniae [9]) was 32 µg/mL (≈ 42.8 µM), the MBC (Streptococcus pneumoniae [10]) was 0.25 µg/mL (≈ 0.334 µM) and the MIC (Streptococcus pneumoniae [1]) was over 32 µg/mL. The Selectivity ratio (Haemophilus influenzae [2]) was 2, the MIC (Streptococcus pneumoniae [11]) was 0.062 µg/mL (≈ 0.0829 µM) and the MIC (Streptococcus pyogenes [13]) was 8 µg/mL (≈ 10.7 µM). It also gave a Selectivity ratio (Staphylococcus aureus [19]) of over 8, an MIC (Staphylococcus aureus [3]) of over 256 µg/mL and a Selectivity ratio (Streptococcus pyogenes [4]) of over 8. The MBC (Streptococcus pyogenes [18]) was over 64 µg/mL, the Selectivity ratio (Streptococcus pneumoniae [5]) was 4 and the Selectivity ratio (Streptococcus pneumoniae [6]) was 8.
